The record followed here is patent publication US11970476B1, “6′-(4-chlorophenyl)-2′-alkoxy-3,4′-bipyridine-3′-carbonitriles as antimicrobial compounds” (KING FAISAL UNIVERSITY, priority 2023, dated 2024).

Assay type in all cases: cell-based
One test deals with Aspergillus flavus. Nature of the test: Agar plate disc-diffusion, antifungal inhibition zone. The settings on record: 72 hours, DMSO control zone subtracted. As to the method:
(§1) The agar plate disc-diffusion method was applied. Sterilized filter papers (6 mm in diameter) were wetted with 10 μL of a solution of 6′-(4-chlorophenyl)-2′-ethoxy-3,4′-bipyridine-3′-carbonitrile (4) or 6′-(4-chlorophenyl)-2′-methoxy-3,4′-bipyridine-3′-carbonitrile (5) to be tested, containing […], and the discs were allowed to air dry. The discs were then placed onto the surface of agar plates (nutrient agar for bacteria and Sabouraud's dextrose agar for fungi) seeded with the test organism. Each plate contained 15 mL of the agar medium, previously seeded with 0.2 mL of the broth culture of each organism pregrown for 18 hours. The plates were incubated at 37° C. for 48 hours, and 72 hours for fungi. The inhibition zones were measured in mm. Discs impregnated with DMSO were used as a control, and its inhibition zone was subtracted from the tested compound actual inhibition zone.
(§2) The results of the antimicrobial testing can be observed in Tables 1 and 2, below, using ciprofloxacin as a reference.
On the technique in general: Agar diffusion results depend on both activity and mobility in agar.

Test [1] relates to Chrysosporium keratinophilum. The description is as above. As to conditions: 72 hours, DMSO control zone subtracted. The protocol:
as §1, §2

The test system of a further test is Staphylococcus aureus. The experiment in a line: Agar plate disc-diffusion, antibacterial inhibition zone. The settings on record: DMSO control zone subtracted. The protocol:
as §1, §2

For the next test, the system named is Bacillus cereus. The test is described as above. As to conditions: DMSO control zone subtracted. As to the method: as §1, §2
The subject of a further test is Escherichia coli. Described as above. As to conditions: DMSO control zone subtracted. The protocol:
as §1, §2

In another test the test system is Pseudomonas aeruginosa. The description is as above. The settings on record: DMSO control zone subtracted. As to the method:
as §1, §2

The test system of another test is different microbes. The experiment in a line: Antimicrobial testing, overall statement on Tables 1 and 2. As to conditions: summary of Tables 1 and 2, bacteria and fungi. As to the method: as §1
Their antibacterial activity was screened against gram positive bacteria namely Bacillus cereus and Staphylococcus aureus and gram-negative bacterial strains namely Pseudomonas aeruginosa and Escherichia coli, while their antifungal activity was screened against Aspergillus flavus and Chrysosporium keratinophilum.

The mark [2] stands for this setting: A = concentration of comp. = 10,000 μL.
[3] abbreviates: B = concentration of comp. = 30,000 μL.
Setting [4] is: C = concentration of comp. = 50,000 μL.

Consider `O=C(O)c1cn(C2CC2)c2cc(N3CCNCC3)c(F)cc2c1=O` [Cip., ciprofloxacin, reference compound], for which the inhibition zone worked out at 29 mm in the test on Aspergillus flavus (setting [2]); 30 mm in the test with Aspergillus flavus (setting [3]); 42 mm in the test on Aspergillus flavus (setting [4]); 29 mm in test [1] (setting [2]); 30 mm in test [1] (setting [3]); 53 mm in test [1] (setting [4]). Also, the inhibition zone stood at 43 mm with Staphylococcus aureus (setting [2]); 44 mm in the test on Staphylococcus aureus (setting [3]); 53 mm with Staphylococcus aureus (setting [4]); 29 mm in the test on Bacillus cereus (setting [2]); 30 mm in the test on Bacillus cereus (setting [3]); 42 mm in the test on Bacillus cereus (setting [4]). Also, the inhibition zone with Escherichia coli (setting [2]) is given as 30 mm; with Escherichia coli (setting [3]) it was 39 mm; in the test with Escherichia coli (setting [4]), 60 mm; in the test on Pseudomonas aeruginosa (setting [2]), 29 mm; with Pseudomonas aeruginosa (setting [3]), 30 mm; with Pseudomonas aeruginosa (setting [4]), 53 mm.
Consider `CCOc1nc(-c2ccc(Cl)cc2)cc(-c2cccnc2)c1C#N` [Compound 4, 6′-(4-chlorophenyl)-2′-ethoxy-3,4′-bipyridine-3′-carbonitrile], for which the inhibition zone with Aspergillus flavus (setting [2]) was found to be 21 mm; in the test on Aspergillus flavus (setting [3]), 26 mm; in the test on Aspergillus flavus (setting [4]), 37 mm; in test [1] (setting [2]), 24 mm; in test [1] (setting [3]), 29 mm; in test [1] (setting [4]) it was 42 mm. For the same compound, the inhibition zone in the test with Staphylococcus aureus (setting [2]) was 15 mm; in the test on Staphylococcus aureus (setting [3]) it was 18 mm; in the test with Staphylococcus aureus (setting [4]), 31 mm; with Bacillus cereus (setting [2]), 24 mm; in the test on Bacillus cereus (setting [3]), 27 mm; in the test with Bacillus cereus (setting [4]), 39 mm. Besides, the inhibition zone with Escherichia coli (setting [2]) came out at 27 mm; in the test with Escherichia coli (setting [3]), 38 mm; in the test on Escherichia coli (setting [4]), 52 mm; in the test with Pseudomonas aeruginosa (setting [2]) it was 25 mm; in the test on Pseudomonas aeruginosa (setting [3]), 29 mm; with Pseudomonas aeruginosa (setting [4]), 39 mm. The “antimicrobial activities (in words)” value with different microbes is “high antimicrobial activities”.
Take `COc1nc(-c2ccc(Cl)cc2)cc(-c2cccnc2)c1C#N` [Compound 5, 6′-(4-chlorophenyl)-2′-methoxy-3,4′-bipyridine-3′-carbonitrile]: the inhibition zone with Aspergillus flavus (setting [2]) is given as 25 mm; in the test on Aspergillus flavus (setting [3]), 28 mm; with Aspergillus flavus (setting [4]) it was 40 mm; in test [1] (setting [2]), 23 mm; in test [1] (setting [3]), 28 mm; in test [1] (setting [4]) it was 41 mm. In addition, the inhibition zone is on record as 17 mm in the test on Staphylococcus aureus (setting [2]); 24 mm in the test with Staphylococcus aureus (setting [3]); 30 mm in the test on Staphylococcus aureus (setting [4]); 26 mm in the test on Bacillus cereus (setting [2]); 28 mm in the test with Bacillus cereus (setting [3]); 39 mm with Bacillus cereus (setting [4]). The inhibition zone is listed as 28 mm in the test with Escherichia coli (setting [2]); 37 mm in the test on Escherichia coli (setting [3]); 53 mm with Escherichia coli (setting [4]); 26 mm in the test with Pseudomonas aeruginosa (setting [2]); 30 mm with Pseudomonas aeruginosa (setting [3]); 42 mm in the test with Pseudomonas aeruginosa (setting [4]). For the same compound, the “antimicrobial activities (in words)” value in the test on different microbes is listed as “high antimicrobial activities”.
